Results reported in patent US5840711A, “Compositions containing lithium inorganic salts and anti-viral drugs and method of treating viral infections such as acquired immunodeficiency syndrome” (priority 1997, dated 1998).

Experiments:
[1] = test system: H9 cells that are chronically infected with HIV; assay: LiGLA 4 days incubation in vitro with H9 cells chronically infected with HIV; format: cell-based
[2] = test system: BFU-E (Erythroid) of normal bone marrow cells; assay: AZT bone marrow toxicity in vitro, BFU-E colony formation; format: cell-based; note: unit not given here
Text: (§1) This is a standard practice.

non-infected H9 cells = conditions: 4 days incubation in vitro
Text: Lithium gamma linolenate (LiGLA) for this study was obtained from Enfamol, Kentville, Nova Scotia, Canada.

[3] = test system: CFU-GM (Myeloid) of normal bone marrow cells; assay: AZT bone marrow toxicity in vitro, CFU-GM colony formation; format: cell-based; note: unit not given here
Text: as §1

[4] = test system: CFU-Meg (Megakaryocyte) of normal bone marrow cells; assay: AZT bone marrow toxicity in vitro, CFU-Meg colony formation; format: cell-based; note: unit not given here
Text: as §1

SMILES: CCCCC/C=C\C/C=C\C/C=C\CCCCC(=O)[O-].[Li+] [Li-GLA, lithium gamma-linolenate]
- H9 cells killed [1]: 90%
- BFU-E (Erythroid) colonies ([2]; Li-GLA 10 μg/ml): 50 ± 4
- BFU-E (Erythroid) colonies ([2]; Li-GLA 15 μg/ml): 44 ± 4
- BFU-E (Erythroid) colonies ([2]; Li-GLA 20 μg/ml): 31 ± 3
- H9 cells killed (non-infected H9 cells): 20%
- CFU-GM (Myeloid) colonies ([3]; Li-GLA 10 μg/ml): 66.5
- CFU-GM (Myeloid) colonies ([3]; Li-GLA 15 μg/ml): 55.5
- CFU-GM (Myeloid) colonies ([3]; Li-GLA 20 μg/ml): 45.0
- CFU-Meg (Megakaryocyte) colonies ([4]; Li-GLA 10 μg/ml): 32.0 ± 3
- CFU-Meg (Megakaryocyte) colonies ([4]; Li-GLA 15 μg/ml): 28.0 ± 4
- CFU-Meg (Megakaryocyte) colonies ([4]; Li-GLA 20 μg/ml): 24.0 ± 3
